Results published in ChEMBL document CHEMBL3045288, “Pharmacophore of neonicotinoid insecticides” (J Pestic Sci, 2008).

How the values were obtained:
Periplaneta americana [1] = test: Neuroblocking potency in Periplaneta americana (American cockroach) central nerve cord; assay type: functional
Aulacophora [2] = test: Insecticidal activity against Aulacophora femoralis (cucurbit leaf beetle) at 20 ppm; assay type: functional
Aulacophora [3] = test: Insecticidal activity against Aulacophora femoralis (cucurbit leaf beetle) at 100 ppm; assay type: functional
Myzus persicae [4] = test: Insecticidal activity against Myzus persicae (green peach aphid) at 100 ppm; assay type: functional
Myzus persicae [5] = test: Insecticidal activity against Myzus persicae (green peach aphid) at 20 ppm; assay type: functional
Spodoptera litura [6] = test: Insecticidal activity against Spodoptera litura at 500 ppm; assay type: functional
Spodoptera litura [7] = test: Insecticidal activity against Spodoptera litura at 100 ppm; assay type: functional
Myzus persicae [8] = test: Insecticidal activity against Myzus persicae (green peach aphid) at 500 ppm; assay type: functional
Aulacophora [9] = test: Insecticidal activity against Aulacophora femoralis (cucurbit leaf beetle) at 500 ppm; assay type: functional
[10] = Lipophilicity, log P of the compound; assay type: physicochemical; settings: octanol/water
Periplaneta americana [11] = test: Insecticidal activity against Periplaneta americana (American cockroach) central nerve cord; assay type: functional
Spodoptera litura [12] = test: Insecticidal activity against Spodoptera litura at 20 ppm; assay type: functional

SMILES: O=[N+]([O-])/C=C1\NCCN1Cc1ccc(Cl)nc1
- log(1/BC) (Periplaneta americana [1]): 5.02

SMILES: O=[N+]([O-])/N=C1\N(CCCF)CCN1Cc1ccc(Cl)nc1
- Activity (Aulacophora [2]): 100%
- Activity (Aulacophora [3]): 100%
- Activity (Myzus persicae [4]): 100%
- Activity (Myzus persicae [5]): 100%
- Activity (Spodoptera litura [6]): 0%

SMILES: O=[N+]([O-])/N=C1\NCCN1CCCCF
- Activity (Myzus persicae [4]): 60%
- Activity (Myzus persicae [5]): 0%
- Activity (Spodoptera litura [7]): 0%
- Activity (Spodoptera litura [6]): 20%
- Activity (Myzus persicae [8]): 97%

SMILES: O=[N+]([O-])/N=C1\NCCN1CCCF
- Activity (Aulacophora [2]): 0%
- Activity (Aulacophora [3]): 100%
- Activity (Myzus persicae [4]): 90%
- Activity (Myzus persicae [5]): 60%
- Activity (Spodoptera litura [7]): 20%
- Activity (Aulacophora [9]): 100%
- Activity (Spodoptera litura [6]): 100%
- Activity (Myzus persicae [8]): 97%

SMILES: O=[N+]([O-])/N=C1\NCCN1CCCCl
- Activity (Aulacophora [2]): 50%
- Activity (Aulacophora [3]): 100%
- Activity (Myzus persicae [4]): 0%
- Activity (Aulacophora [9]): 100%
- Activity (Spodoptera litura [6]): 0%
- Activity (Myzus persicae [8]): 97%

SMILES: O=[N+]([O-])/N=C1\NCCN1CCF
- Activity (Aulacophora [9]): 0%
- Activity (Spodoptera litura [6]): 0%
- Activity (Myzus persicae [8]): 60%

SMILES: CCCN1CCN/C1=N\[N+](=O)[O-]
- Activity (Aulacophora [9]): 0%
- Activity (Spodoptera litura [6]): 0%
- Activity (Myzus persicae [8]): 60%

SMILES: O=[N+]([O-])/N=C1\NCCCN1Cc1ccc(Cl)nc1
- log(1/BC) (Periplaneta americana [1]): 5.35

SMILES: O=[N+]([O-])/C=C1\SCCN1Cc1ccc(Cl)nc1
- log(1/BC) (Periplaneta americana [1]): 6.19

SMILES: CN1CCN(Cc2ccc(Cl)nc2)/C1=N/[N+](=O)[O-]
- log(1/BC) (Periplaneta americana [1]): 3.81

SMILES: O=[N+]([O-])/N=c1\ccccn1Cc1ccc(Cl)nc1
- log(1/BC) (Periplaneta americana [1]): 5.09

SMILES: O=[N+]([O-])/N=c1\ccccn1Cc1cnc(Cl)s1
- log(1/BC) (Periplaneta americana [1]): 5.75

SMILES: O=[N+]([O-])/C=C1\CCCN1Cc1ccc(Cl)nc1
- log(1/BC) (Periplaneta americana [1]): 6.43

SMILES: O=[N+]([O-])/C=C1\NCCN1Cc1cnc(Cl)s1
- log(1/BC) (Periplaneta americana [1]): 5.73

SMILES: O=[N+]([O-])/N=C1\SCCN1Cc1cnc(Cl)s1
- log(1/BC) (Periplaneta americana [1]): 6.31

SMILES: O=[N+]([O-])/C=C1\CCCN1Cc1cnc(Cl)s1
- logP [10]: 0.64
- log(1/BC) (Periplaneta americana [1]): 6

SMILES: CN1CCN(Cc2ccc(Cl)nc2)/C1=C/[N+](=O)[O-]
- log(1/BC) (Periplaneta americana [1]): 3.84

SMILES: O=[N+]([O-])/N=c1\[nH]ccn1Cc1cnc(Cl)s1
- log(1/BC) (Periplaneta americana [1]): 4.61

SMILES: O=[N+]([O-])/N=c1\sccn1Cc1cnc(Cl)s1
- log(1/BC) (Periplaneta americana [1]): 5.79

SMILES: O=[N+]([O-])/N=C1/N(CCCCN2CCN(Cc3ccc(Cl)nc3)/C2=N/[N+](=O)[O-])CCN1Cc1ccc(Cl)nc1
- Activity (Periplaneta americana [11]): 11 nmol

SMILES: O=[N+]([O-])/N=C1/N(CCCCCCCCCN2CCN(Cc3ccc(Cl)nc3)/C2=N/[N+](=O)[O-])CCN1Cc1ccc(Cl)nc1
- Activity (Periplaneta americana [11]): 2.8 nmol

SMILES: O=[N+]([O-])/N=C1/N(CCCCCN2CCN(Cc3ccc(Cl)nc3)/C2=N/[N+](=O)[O-])CCN1Cc1ccc(Cl)nc1
- Activity (Periplaneta americana [11]): 3.9 nmol

SMILES: O=[N+]([O-])/N=C1/N(CCCN2CCN(Cc3ccc(Cl)nc3)/C2=N/[N+](=O)[O-])CCN1Cc1ccc(Cl)nc1
- Activity (Periplaneta americana [11]): 4.9 nmol

SMILES: O=[N+]([O-])/N=C1/N(CCCCCCCCCCN2CCN(Cc3ccc(Cl)nc3)/C2=N/[N+](=O)[O-])CCN1Cc1ccc(Cl)nc1
- Activity (Periplaneta americana [11]): 3.7 nmol

SMILES: O=[N+]([O-])/N=C1\NCCN1CCC(F)(F)F
- Activity (Aulacophora [3]): 50%
- Activity (Aulacophora [9]): 100%
- Activity (Spodoptera litura [6]): 30%
- Activity (Myzus persicae [8]): 0%

SMILES: O=[N+]([O-])/N=C1\NCCN1CCC(F)=C(F)F
- Activity (Aulacophora [9]): 0%
- Activity (Spodoptera litura [6]): 0%
- Activity (Myzus persicae [8]): 0%

SMILES: O=[N+]([O-])/N=C1\N(CCN2CCN(Cc3ccc(Cl)nc3)/C2=N\[N+](=O)[O-])CCN1Cc1ccc(Cl)nc1
- Activity (Periplaneta americana [11]): 8.3 nmol

SMILES: O=[N+]([O-])/N=C1/N(CCCCCCCCN2CCN(Cc3ccc(Cl)nc3)/C2=N/[N+](=O)[O-])CCN1Cc1ccc(Cl)nc1
- Activity (Periplaneta americana [11]): 4.5 nmol

SMILES: O=[N+]([O-])/N=c1\sccn1Cc1ccc(Cl)nc1
- log(1/BC) (Periplaneta americana [1]): 5.68

SMILES: O=[N+]([O-])Nc1nccn1Cc1ccc(Cl)nc1 [DEHYDROIMIDACLOPRID]
- log(1/BC) (Periplaneta americana [1]): 4.31

SMILES: O=[N+]([O-])/N=C1/N(CCCCCCCN2CCN(Cc3ccc(Cl)nc3)/C2=N/[N+](=O)[O-])CCN1Cc1ccc(Cl)nc1 [Heptamethylene 1,7-bis-imadacloprid]
- Activity (Periplaneta americana [11]): 2.8 nmol

SMILES: O=[N+]([O-])/N=C1/N(CCCCCCN2CCN(Cc3ccc(Cl)nc3)/C2=N/[N+](=O)[O-])CCN1Cc1ccc(Cl)nc1 [Hexamethylene 1,6-bis-imadacloprid]
- Activity (Periplaneta americana [11]): 2.2 nmol

SMILES: O=[N+]([O-])/N=C1\NCCN1Cc1ccc(Cl)nc1 [IMIDACLOPRID]
- Activity (Periplaneta americana [11]): 2.5 nmol
- Activity (Aulacophora [2]): 100%
- Activity (Spodoptera litura [12]): 40%
- Activity (Aulacophora [3]): 100%
- Activity (Myzus persicae [4]): 100%
- Activity (Myzus persicae [5]): 100%
- Activity (Spodoptera litura [7]): 80%
- Activity (Aulacophora [9]): 100%
- Activity (Spodoptera litura [6]): 100%
- Activity (Myzus persicae [8]): 100%
- log(1/BC) (Periplaneta americana [1]): 5.64

SMILES: O=[N+]([O-])/N=C1\NCCN1Cc1cnc(Cl)s1 [IMIDACLOTHIZ]
- log(1/BC) (Periplaneta americana [1]): 5.97
